Values quoted from earlier work in article PMC5465257, “Evaluation of JNJ-54717793 a Novel Brain Penetrant Selective Orexin 1 Receptor Antagonist in Two Rat Models of Panic Attack Provocation” (Frontiers in Pharmacology, 2017).

Columns and labels:
[1] = parameters: method as in Beig et al., 2015a; conditions: systemic administration; ref Beig et al., 2015a; cited from earlier work
GABA synthesis = system: GABA synthesis; parameters: method as in earlier work; conditions: 3.5 nmol/0.5 μl per hour, unilateral infusions; ref Shekhar and DiMicco, 1987; Abshire et al., 1988; Shekhar et al., 1996, 2006; Shekhar and Keim, 1997; cited from earlier work
Sprague-Dawley rats = system: Sprague-Dawley rats; parameters: method as in Bonaventure et al., 2015b; Johnson et al., 2015; conditions: 20% CO2 model, ref Bonaventure et al., 2015b, Johnson et al.; cited from earlier work
[2] = parameters: method as in Furlong et al., 2009; conditions: ref Furlong et al., 2009; cited from earlier work

COc1ccc(C[C@H]2c3cc(OC)c(OC)cc3CCN2[C@@H](C(=O)NC(C)C)c2ccccc2)cc1OC [ACT335827]
novelty stress (cage changes) induced cardioexcitation [1]: attenuates

C=CC[C@H](N)C(=O)O [1-allyglycine]
reduction of local GABA concentrations (GABA synthesis): approximately 60%

CCN(Cc1cccnc1)C(=O)CN(c1ccc(OC)nc1)S(=O)(=O)c1ccccc1C [EMPA, N-ethyl-2-[(6-methoxy-pyridin-3-yl)-(toluene-2-sulfonyl)-amino]-N-pyridin-3-ylmethyl-acetamide]
novelty stress (cage changes) induced cardioexcitation [1]: attenuates

CC1(C)OC[C@H](NC(=O)Nc2ccc(Br)cc2Br)[C@H](c2ccccc2)O1 [JNJ-10397049]
panic responses to 20% CO2 (Sprague-Dawley rats): did not alter

CNC(=O)[C@@H](c1ccccc1)N1CCc2cc(OC)c(OC)cc2[C@@H]1CCc1ccc(C(F)(F)F)cc1 [almorexant]
locomotor and cardiovascular responses to exploration and footshock [2]: attenuated
